Results reported in patent publication US9339541B2, “Thiophosphate nucleosides for the treatment of HCV” (priority 2013, dated 2016).

System: HCV genotype 1b replicon
Format: cell-based
Conditions: Huh-7-derived cell line (Zluc), HCV genotype 1b replicon with luciferase reporter, 72 hours of incubation

Q: For `CCOc1nc(N)nc2c1ncn2[C@@H]1O[C@H](COP(=O)(N[C@@H](C)C(=O)OC(C)C)SCC2NC(=O)NC2=O)[C@@H](O)[C@@]1(C)F` (single isomer, unassigned) [3b Diastereomer 1], which EC50 is on record?
A: 1 to 10 µM

Q: Which EC50 does the source give for `CC(C)OC(=O)[C@H](C)NP(=O)(OC[C@H]1O[C@@H](n2ccc(=O)[nH]c2=O)[C@](C)(O)[C@@H]1O)SCC1NC(=O)NC1=O` (single isomer, unassigned) [4b Diastereomer 1] here?
A: > 10 µM

Q: For `CC(C)OC(=O)[C@@H](C)NP(=O)(OC[C@H]1O[C@@H](n2ccc(=O)[nH]c2=O)[C@](C)(Cl)[C@@H]1O)SC1CCCC1` (single isomer, unassigned) [8a Diastereomer 1], which EC50 is on record?
A: > 10 µM

Q: For `CC(C)OC(=O)[C@H](C)NP(=O)(OC[C@H]1O[C@@H](n2ccc(=O)[nH]c2=O)[C@](C)(Cl)[C@@H]1O)SC1CCCC1` (single isomer, unassigned) [8b Diastereomer 1], which EC50 is on record?
A: 1 to 10 µM

Q: With `COC(=O)N[C@@H](CSP(=O)(N[C@@H](C)C(=O)OC(C)C)OC[C@H]1O[C@@H](n2cnc3c(OC)nc(N)nc32)[C@](C)(O)[C@@H]1O)C(=O)OC(C)C` (stereo partly drawn) [Compound 2by] as the compound, how does the EC50 read?
A: 1 to 10 µM

Q: With `CCOC(=O)[C@H](C)NP(=O)(OC[C@H]1O[C@@H](n2cnc3c(OCC)nc(N)nc32)[C@](C)(O)[C@@H]1O)SCC` (stereo partly drawn) [Compound 10b] as the compound, how does the EC50 read?
A: ≤ 0.25 µM

Q: With `CCOC(=O)[C@H](C)NP(=O)(OC[C@H]1O[C@@H](n2cnc3c(=O)[nH]c(N)nc32)[C@](C)(O)[C@@H]1O)SCC` (stereo partly drawn) [Compound 13b] as the compound, how does the EC50 read?
A: 1 to 10 µM

Q: For `CCOC(=O)CCSP(=O)(N[C@@H](C)C(=O)OC(C)C)OC[C@H]1O[C@@H](n2ccc(=O)[nH]c2=O)[C@](C)(O)[C@@H]1O` (stereo partly drawn) [Compound 15b], which EC50 is on record?
A: > 10 µM

Q: With `COC(=O)CSP(=O)(N[C@@H](C)C(=O)OC(C)C)OC[C@H]1O[C@@H](n2ccc(=O)[nH]c2=O)[C@](C)(Cl)[C@@H]1O` (stereo partly drawn) [Compound 17b] as the compound, how does the EC50 read?
A: > 10 µM
